Where “and” joins values, the source holds several entries; their conditions need not be identical. Equal entries are not always repeated. Toxic doses and inconclusive results are not listed. The calls were made as follows: active = survival T/C of 150% or more; inactive = T/C below 125% in these data.
System: P388 leukemia ip, CD2F1 mice, survival T/C
Test: NCI In Vivo Anticancer Drug Screen. Data for tumor model P388 Leukemia (intraperitoneal) in CD2F1 (CDF1) mice
Settings: endpoint: median survival time, higher = longer survival
Method in brief: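 Mice carrying the transplanted tumor received test compound or vehicle. Survival was recorded in each group, and the value is the treated-group measurement divided by that of the vehicle-treated control group.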

[1] = dose: 100.0 mg/kg/injection, schedule: Q04DX003 (ip), vehicle: saline with Tween-80
[2] = dose: 200.0 mg/kg/injection, schedule: Q04DX003 (ip), vehicle: saline with Tween-80
[3] = dose: 400.0 mg/kg/injection, schedule: Q04DX003 (ip), vehicle: saline with Tween-80
[4] = dose: 50.0 mg/kg/injection, schedule: Q01DX009 (ip), vehicle: Klucel (hydroxypropylcellulose) (HPC)
[5] = dose: 100.0 mg/kg/injection, schedule: Q01DX009 (ip), vehicle: Klucel (hydroxypropylcellulose) (HPC)
[6] = dose: 200.0 mg/kg/injection, schedule: Q01DX009 (ip), vehicle: Klucel (hydroxypropylcellulose) (HPC)
[7] = dose: 12.5 mg/kg/injection, schedule: Q01DX005 (ip), vehicle: saline with Tween-80
[8] = dose: 100.0 mg/kg/injection, schedule: Q04DX003 (ip), vehicle: Klucel (hydroxypropylcellulose) (HPC)
[9] = dose: 200.0 mg/kg/injection, schedule: Q04DX003 (ip), vehicle: Klucel (hydroxypropylcellulose) (HPC)
[10] = dose: 400.0 mg/kg/injection, schedule: Q04DX003 (ip), vehicle: Klucel (hydroxypropylcellulose) (HPC)
[11] = dose: 12.5 mg/kg/injection, schedule: Q01DX009 (ip), vehicle: saline with Tween-80
[12] = dose: 50.0 mg/kg/injection, schedule: Q01DX009 (ip), vehicle: saline with Tween-80
[13] = dose: 100.0 mg/kg/injection, schedule: Q01DX009 (ip), vehicle: saline with Tween-80
[14] = dose: 50.0 mg/kg/injection, schedule: Q01DX005 (ip), vehicle: Klucel (hydroxypropylcellulose) (HPC)
[15] = dose: 100.0 mg/kg/injection, schedule: Q01DX005 (ip), vehicle: Klucel (hydroxypropylcellulose) (HPC)
[16] = dose: 100.0 mg/kg/injection, schedule: Q01DX009 (ip), vehicle: saline
[17] = dose: 200.0 mg/kg/injection, schedule: Q01DX009 (ip), vehicle: saline
[18] = dose: 200.0 mg/kg/injection, schedule: Q01DX009 (ip), vehicle: saline with Tween-80
[19] = dose: 25.0 mg/kg/injection, schedule: Q01DX009 (ip), vehicle: Klucel (hydroxypropylcellulose) (HPC)

Measured: T/C

NC(=S)N/N=C/c1cc(Br)ccc1O
inactive: [1] 86 % of control | [2] 94 % of control | [3] 112 % of control

NC(Cc1ccc2ccccc2c1Cl)C(=O)O (stereo unspecified)
inactive: [4] 102 % of control | [5] 100 % of control | [6] 100 % of control

Nc1ccc(N)c2c1C(=O)c1ccccc1C2=O
inactive: dose: 50.0 mg/kg/injection, schedule: Q01DX005 (ip), vehicle: saline with Tween-80 110 % of control | [4] 105 % of control | dose: 100.0 mg/kg/injection, schedule: Q01DX005 (ip), vehicle: saline with Tween-80 105 % of control | [5] 103 % of control | dose: 200.0 mg/kg/injection, schedule: Q01DX005 (ip), vehicle: saline with Tween-80 105 % of control

C/C(=N\NC(=S)N1CCN(Cc2ccccc2)CC1)c1ccccn1
inactive: dose: 3.13 mg/kg/injection, schedule: Q01DX005 (ip), vehicle: saline with Tween-80 118 % of control
active: [7] 152 % of control

O=c1[nH]cccc1[N+](=O)[O-]
inactive: [1] 100 % of control | [2] 100 % of control | [3] 109 % of control | dose: 600.0 mg/kg/injection, schedule: Q01DX009 (ip), vehicle: saline 90 % of control and 93 % of control

COc1cc(OC)c(OC)cc1/C=C/[N+](=O)[O-]
inactive: [8] 102 % of control | [9] 100 % of control | [10] 111 % of control

O=C1Nc2ccc([N+](=O)[O-])cc2/C1=C/C(=O)c1ccccc1
inactive: dose: 3.13 mg/kg/injection, schedule: Q01DX009 (ip), vehicle: saline with Tween-80 101 % of control | dose: 6.25 mg/kg/injection, schedule: Q01DX009 (ip), vehicle: saline with Tween-80 98 % of control | [11] 96 % of control | [12] 100 % of control | [13] 108 % of control

Cc1nn2c(=O)c3c([N+](=O)[O-])c(C)nn3c(=O)c2c1[N+](=O)[O-]
inactive: [14] 105 % of control | [15] 97 % of control | dose: 200.0 mg/kg/injection, schedule: Q01DX005 (ip), vehicle: Klucel (hydroxypropylcellulose) (HPC) 100 % of control

Clc1nc2ccccc2[nH]1
inactive: dose: 25.0 mg/kg/injection, schedule: Q01DX009 (ip), vehicle: saline 101 % of control | dose: 50.0 mg/kg/injection, schedule: Q01DX009 (ip), vehicle: saline 99 % of control | [16] 95 % of control | [17] 98 % of control

NC(=O)c1cccnc1
inactive: [12] 106 % of control | [13] 110 % of control | [18] 97 % of control | dose: 250.0 mg/kg/injection, schedule: Q01DX009 (sc), vehicle: saline 102 % of control | dose: 500.0 mg/kg/injection, schedule: Q01DX009 (sc), vehicle: saline 105 % of control

CN/N=C/c1cc(=O)n(C)c(=O)n1C
inactive: [12] 101 % of control | [13] 101 % of control | [18] 99 % of control

Clc1ccc(N=Cc2ccc(C=Nc3ccc(Cl)cc3)cc2)cc1
inactive: dose: 6.25 mg/kg/injection, schedule: Q01DX009 (ip), vehicle: Klucel (hydroxypropylcellulose) (HPC) 94 % of control | dose: 12.5 mg/kg/injection, schedule: Q01DX009 (ip), vehicle: Klucel (hydroxypropylcellulose) (HPC) 91 % of control | [19] 94 % of control

C=CCS(=O)(=O)O
inactive: [16] 100 % of control | [17] 104 % of control | dose: 400.0 mg/kg/injection, schedule: Q01DX009 (ip), vehicle: saline 100 % of control

O=C1C(Br)=C(c2ccccc2)S(=O)(=O)c2ccccc21
inactive: dose: 60.0 mg/kg/injection, schedule: Q01DX005 (ip), vehicle: Klucel (hydroxypropylcellulose) (HPC) 109 % of control | dose: 120.0 mg/kg/injection, schedule: Q01DX005 (ip), vehicle: Klucel (hydroxypropylcellulose) (HPC) 114 % of control | dose: 240.0 mg/kg/injection, schedule: Q01DX005 (ip), vehicle: Klucel (hydroxypropylcellulose) (HPC) 114 % of control

CSc1ccc2c(=O)c(C(=O)O)c[nH]c2c1
inactive: dose: 100.0 mg/kg/injection, schedule: Q04DX003 (ip), vehicle: saline 108 % of control | dose: 200.0 mg/kg/injection, schedule: Q04DX003 (ip), vehicle: saline 99 % of control | dose: 400.0 mg/kg/injection, schedule: Q04DX003 (ip), vehicle: saline 107 % of control

O=C(O)Cc1noc2ccccc12
inactive: dose: 25.0 mg/kg/injection, schedule: Q04DX003 (ip), vehicle: Klucel (hydroxypropylcellulose) (HPC) 92 % of control | dose: 50.0 mg/kg/injection, schedule: Q04DX003 (ip), vehicle: Klucel (hydroxypropylcellulose) (HPC) 91 % of control | [8] 91 % of control | [9] 90 % of control

COc1ccc2c(N3CCN(C(=O)C(Cl)(Cl)Cl)CC3)cc(C)nc2c1
inactive: dose: 60.0 mg/kg/injection, schedule: Q01DX005 (ip), vehicle: saline with Tween-80 103 % of control | dose: 120.0 mg/kg/injection, schedule: Q01DX005 (ip), vehicle: saline with Tween-80 104 % of control | dose: 240.0 mg/kg/injection, schedule: Q01DX005 (ip), vehicle: saline with Tween-80 102 % of control

C(=C\c1ccncc1)/c1ccccc1
inactive: [14] 92 % of control | [15] 90 % of control

C=C1C(=O)O[C@H]2CC(C)C3C[C@@H](O)OC(O)[C@]3(C)C[C@@H]12 (stereo partly specified)
inactive: dose: 2.38 mg/kg/injection, schedule: Q01DX005 (ip), vehicle: Klucel (hydroxypropylcellulose) (HPC) 101 % of control | dose: 4.75 mg/kg/injection, schedule: Q01DX005 (ip), vehicle: Klucel (hydroxypropylcellulose) (HPC) 111 % of control | dose: 9.5 mg/kg/injection, schedule: Q01DX005 (ip), vehicle: Klucel (hydroxypropylcellulose) (HPC) 102 % of control

Cc1nn(C(=O)c2ccncc2)c(C)c1N=Nc1ccccc1Cl
inactive: [8] 96 % of control | [9] 95 % of control | [10] 97 % of control

NC(N)=N/N=C/c1ccc(Cl)c(Cl)c1
inactive: [11] 100 % of control | dose: 25.0 mg/kg/injection, schedule: Q01DX009 (ip), vehicle: saline with Tween-80 95 % of control | [12] 86 % of control

COc1ccc(C2(O)OCC(COc3cc(C)c(Cl)c(C)c3)O2)cc1OC (stereo unspecified)
inactive: dose: 60.0 mg/kg/injection, schedule: Q01DX005 (ip), vehicle: DMSO 114 % of control | dose: 120.0 mg/kg/injection, schedule: Q01DX005 (ip), vehicle: DMSO 123 % of control | dose: 240.0 mg/kg/injection, schedule: Q01DX005 (ip), vehicle: DMSO 109 % of control

C=CCOC(=O)C12CCC(C)(C)CC1C1=CCC3C4(C)CCC(O)C(C)(CO)C4CCC3(C)C1(C)CC2 (stereo unspecified)
inactive: dose: 3.0 mg/kg/injection, schedule: Q01DX005 (ip), vehicle: saline with Tween-80 111 % of control | dose: 6.0 mg/kg/injection, schedule: Q01DX005 (ip), vehicle: saline with Tween-80 114 % of control | dose: 12.0 mg/kg/injection, schedule: Q01DX005 (ip), vehicle: saline with Tween-80 100 % of control | [7] 92 % of control

CS(=O)CC(=O)c1ccccn1 (stereo unspecified)
inactive: dose: 50.0 mg/kg/injection, schedule: Q01DX005 (ip), vehicle: saline 106 % of control | dose: 100.0 mg/kg/injection, schedule: Q01DX005 (ip), vehicle: saline 100 % of control | dose: 200.0 mg/kg/injection, schedule: Q01DX005 (ip), vehicle: saline 99 % of control

O=C1CCc2ccccc2C1C(=O)CC(O)(c1ccccc1)c1ccccc1 (stereo unspecified)
inactive: dose: 12.5 mg/kg/injection, schedule: Q01DX009 (ip), vehicle: saline sonified 95 % of control | dose: 25.0 mg/kg/injection, schedule: Q01DX009 (ip), vehicle: saline sonified 100 % of control | dose: 50.0 mg/kg/injection, schedule: Q01DX009 (ip), vehicle: saline sonified 95 % of control

Nc1cc(N)n(N)c(=S)n1
inactive: [19] 103 % of control | [4] 100 % of control | dose: 50.0 mg/kg/injection, schedule: Q04DX003 (ip), vehicle: saline with Tween-80 104 % of control | [5] 110 % of control | [1] 103 % of control | [6] 108 % of control | [2] 99 % of control | [3] 100 % of control

Source: PubChem BioAssay AID330 (DTP/NCI, 2004)
